These are literature values, as cited in US20240216299A1, “TRANSMUCOSAL THERAPEUTIC SYSTEM CONTAINING AGOMELATINE” (LTS LOHMANN Therapie-Systeme AG, priority 2019, published 2024).

Each structure is given as a SMILES string.

The mark [1] stands for this setting: patients with moderate hepatic impairment compared to healthy subjects.

In the case of `COc1ccc2cccc(CCNC(C)=O)c2c1` [agomelatine, N-(2-(7-Methoxy-1-naphthyl)ethyl)acetamide], for the setting “oral”, the oral absorption is listed as > 80% and the overall bioavailability result is reported as “less than 5%”. Besides, under setting [1], the “increase in AUC” value is recorded as “up to 140 fold” and the “increase in Cmax” value is listed as “up to 140 fold”.
